Where two headings read alike, the source gives them in different places.
What was measured:
[1] = molecular target: α-glucosidase (yeast); conditions: cited from earlier work; for Ki: literature values, read-out: Inhibition activity Ki, α-glucosidase (yeast)
[2] = molecular target: T1, α-glucosidase (rice) (Oryza sativa subsp. japonica, UniProt Q653V7); conditions: cited from earlier work; for Ki: literature values, read-out: Inhibition activity Ki, α-glucosidase (rice)
T1 construct: purchased Sigma
T1 sequence (Q653V7 34-885): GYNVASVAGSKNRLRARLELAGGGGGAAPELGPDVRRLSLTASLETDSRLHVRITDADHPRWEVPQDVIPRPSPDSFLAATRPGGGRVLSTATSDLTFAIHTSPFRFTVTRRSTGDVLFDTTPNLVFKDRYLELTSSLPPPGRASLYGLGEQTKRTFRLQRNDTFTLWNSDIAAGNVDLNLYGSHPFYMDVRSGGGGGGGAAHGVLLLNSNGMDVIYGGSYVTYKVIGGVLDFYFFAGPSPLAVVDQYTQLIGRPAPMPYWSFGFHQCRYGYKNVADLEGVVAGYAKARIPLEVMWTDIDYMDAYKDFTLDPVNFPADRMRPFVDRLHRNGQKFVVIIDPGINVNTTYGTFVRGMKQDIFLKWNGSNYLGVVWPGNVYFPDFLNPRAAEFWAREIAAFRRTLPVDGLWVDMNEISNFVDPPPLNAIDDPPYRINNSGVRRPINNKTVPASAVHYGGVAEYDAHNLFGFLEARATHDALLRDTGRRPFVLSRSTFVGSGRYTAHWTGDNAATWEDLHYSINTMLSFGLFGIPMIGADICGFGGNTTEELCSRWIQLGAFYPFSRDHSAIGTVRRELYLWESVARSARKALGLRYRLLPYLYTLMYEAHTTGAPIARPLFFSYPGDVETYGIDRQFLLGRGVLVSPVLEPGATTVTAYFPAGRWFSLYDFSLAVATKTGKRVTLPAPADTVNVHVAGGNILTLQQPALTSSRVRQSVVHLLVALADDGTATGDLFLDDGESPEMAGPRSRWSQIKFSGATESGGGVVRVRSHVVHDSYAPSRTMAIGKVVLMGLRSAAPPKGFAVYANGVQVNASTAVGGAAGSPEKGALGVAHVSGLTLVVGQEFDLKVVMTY

[3] = molecular target: β-glucosidase (almond); conditions: cited from earlier work
[4] = tested on: T2, α-glucosidase (yeast); experiment: Inhibition of yeast α-glucosidase, hydrolysis of p-nitrophenylglucoside followed spectrophotometrically; assay type: biochemical
T2 construct: other: p-nitrophenylglucoside substrate, 37° C
Procedure: (§1) The inhibitory activity of 3 against a series of enzyme was tested. Enzymes were assayed according to standard procedures (Halvorson, H. O., Methods Enzymol. 8, 55 (1966)) by following the hydrolysis of nitrophenyl glycosides spectrophotometrically or by evaluating the reducing sugar formed in some glucosidase assays. The enzymes used were α-glucosidase (yeast and rice), β-glucosidase (almond), α-galactosidase (green coffee beans), β-galactosidase (E. coli) and α-mannosidase (jack beans).
(§2) Inhibitory potency of 3 was determined by spectrophotometrically measuring the residual hydrolytic activities of the glycosidases against the corresponding nitrophenyl α- or β-D-glucopyranoside. The glycosidases used were α-glucosidase (yeast), α-glucosidase (rice), β-glucosidase (almond), α-galactosidase (green coffee beans), β-galactosidase (E. coli) and α-mannosidase (jack beans). All enzymes were purchased from Sigma. Each assay was performed in a phosphate or an acetate buffer at the optimal pH for each enzyme. Inhibition studies (except rice α-glucosidase) were performed by adding the inhibitor to a final concentration of 0.05 mM to 11 mM to the respective buffer solutions along with enzyme. The solutions were incubated at 37° C. before adding substrates to the solutions. The absorbance of the resulting mixture was determined at 400 nm (for p-nitrophenol).

[5] = molecular target: T1, α-glucosidase (rice); experiment: Inhibition of rice α-glucosidase, maltose substrate, glucose oxidase/peroxidase coupled assay; assay type: biochemical
Procedure: as §1
as §2, with “Inhibition studies (except rice α-glucosidase) were performed by adding the inhibitor to a final concentration of 0.05 mM to 11 mM to the respective buffer solutions along with enzyme. The solutions were incubated at 37° C. before adding substrates to the solutions.” left out
For rice α-glucosidase inhibition, maltose was used as the substrate, and the assay was based on the glucose oxidase/peroxidase enzyme procedure. […] The absorbance of the solution was determined at 500 nm for oxidized o-dianisidine. […] The absorbance of the solution was determined at 500 nm.

[6] = tested on: β-glucosidase (almond); experiment: Inhibition of almond β-glucosidase, nitrophenyl glycoside hydrolysis; assay type: biochemical
Procedure: as §1, §2

[7] = molecular target: T3, α-galactosidase (green coffee beans) (Coffea arabica, UniProt Q42656); experiment: Inhibition of green coffee bean α-galactosidase, nitrophenyl glycoside hydrolysis; assay type: biochemical
T3 construct: purchased Sigma
T3 sequence (Q42656 16-378): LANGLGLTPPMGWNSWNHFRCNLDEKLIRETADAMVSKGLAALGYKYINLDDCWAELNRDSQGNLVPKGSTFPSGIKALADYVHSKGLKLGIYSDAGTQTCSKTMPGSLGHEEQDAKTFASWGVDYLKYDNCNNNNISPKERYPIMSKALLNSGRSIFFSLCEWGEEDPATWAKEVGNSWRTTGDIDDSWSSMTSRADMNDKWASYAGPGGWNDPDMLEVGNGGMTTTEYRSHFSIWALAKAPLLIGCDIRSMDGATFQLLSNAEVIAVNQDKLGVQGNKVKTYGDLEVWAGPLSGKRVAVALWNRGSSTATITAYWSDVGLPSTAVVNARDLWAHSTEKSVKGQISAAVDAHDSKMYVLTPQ
Procedure: as §1, §2

[8] = molecular target: T4, β-galactosidase (E. coli) (Escherichia coli, UniProt P00722); experiment: Inhibition of E. coli β-galactosidase, nitrophenyl glycoside hydrolysis; assay type: biochemical
T4 construct: purchased Sigma
T4 sequence (P00722 2-1024): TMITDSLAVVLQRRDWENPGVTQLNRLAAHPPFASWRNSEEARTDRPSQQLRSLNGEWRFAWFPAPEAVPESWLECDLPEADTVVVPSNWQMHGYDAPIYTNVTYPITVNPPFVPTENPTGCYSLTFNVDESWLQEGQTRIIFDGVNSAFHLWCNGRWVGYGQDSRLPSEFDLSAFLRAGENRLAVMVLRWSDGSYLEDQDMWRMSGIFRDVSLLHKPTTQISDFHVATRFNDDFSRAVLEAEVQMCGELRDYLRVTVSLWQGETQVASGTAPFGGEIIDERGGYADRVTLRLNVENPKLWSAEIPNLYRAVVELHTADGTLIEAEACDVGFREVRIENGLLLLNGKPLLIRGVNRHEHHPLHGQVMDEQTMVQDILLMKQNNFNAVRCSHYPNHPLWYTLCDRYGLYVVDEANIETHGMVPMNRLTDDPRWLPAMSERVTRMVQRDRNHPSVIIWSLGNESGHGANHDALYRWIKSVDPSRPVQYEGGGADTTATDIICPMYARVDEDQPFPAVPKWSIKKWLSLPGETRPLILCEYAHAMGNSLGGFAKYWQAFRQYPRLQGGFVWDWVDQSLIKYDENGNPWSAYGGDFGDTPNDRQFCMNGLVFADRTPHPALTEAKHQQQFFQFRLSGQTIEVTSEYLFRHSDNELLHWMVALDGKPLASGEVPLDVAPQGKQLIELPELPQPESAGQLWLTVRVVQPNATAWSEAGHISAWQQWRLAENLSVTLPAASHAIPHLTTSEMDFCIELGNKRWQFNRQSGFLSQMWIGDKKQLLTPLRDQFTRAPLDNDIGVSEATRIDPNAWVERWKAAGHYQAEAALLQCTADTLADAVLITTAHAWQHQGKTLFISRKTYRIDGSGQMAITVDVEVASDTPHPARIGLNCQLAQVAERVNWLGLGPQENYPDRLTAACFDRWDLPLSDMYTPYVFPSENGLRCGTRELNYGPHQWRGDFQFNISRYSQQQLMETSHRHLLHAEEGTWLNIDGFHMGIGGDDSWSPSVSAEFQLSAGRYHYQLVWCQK
Procedure: as §1, §2

[9] = molecular target: T5, α-mannosidase (jack beans) (Canavalia ensiformis, UniProt C0HJB3); experiment: Inhibition of jack bean α-mannosidase, nitrophenyl glycoside hydrolysis; assay type: biochemical
T5 construct: purchased Sigma
T5 sequence (C0HJB3 1-562 limits assumed): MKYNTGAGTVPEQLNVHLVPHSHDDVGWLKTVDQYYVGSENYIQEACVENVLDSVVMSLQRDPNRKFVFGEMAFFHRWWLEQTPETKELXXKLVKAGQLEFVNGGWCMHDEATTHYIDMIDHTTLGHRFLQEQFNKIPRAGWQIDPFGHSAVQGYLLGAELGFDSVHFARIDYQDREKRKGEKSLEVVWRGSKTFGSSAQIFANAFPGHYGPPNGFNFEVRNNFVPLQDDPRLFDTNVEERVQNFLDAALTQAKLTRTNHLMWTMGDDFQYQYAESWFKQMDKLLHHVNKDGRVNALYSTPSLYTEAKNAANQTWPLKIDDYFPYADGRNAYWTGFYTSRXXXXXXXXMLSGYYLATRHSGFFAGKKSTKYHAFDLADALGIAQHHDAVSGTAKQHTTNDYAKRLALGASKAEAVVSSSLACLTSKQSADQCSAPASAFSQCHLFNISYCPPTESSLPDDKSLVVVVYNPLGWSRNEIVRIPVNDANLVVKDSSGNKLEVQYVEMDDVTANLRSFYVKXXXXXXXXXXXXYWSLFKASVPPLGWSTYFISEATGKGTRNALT
T5 sequence (C0HJB3 563-981 limits assumed): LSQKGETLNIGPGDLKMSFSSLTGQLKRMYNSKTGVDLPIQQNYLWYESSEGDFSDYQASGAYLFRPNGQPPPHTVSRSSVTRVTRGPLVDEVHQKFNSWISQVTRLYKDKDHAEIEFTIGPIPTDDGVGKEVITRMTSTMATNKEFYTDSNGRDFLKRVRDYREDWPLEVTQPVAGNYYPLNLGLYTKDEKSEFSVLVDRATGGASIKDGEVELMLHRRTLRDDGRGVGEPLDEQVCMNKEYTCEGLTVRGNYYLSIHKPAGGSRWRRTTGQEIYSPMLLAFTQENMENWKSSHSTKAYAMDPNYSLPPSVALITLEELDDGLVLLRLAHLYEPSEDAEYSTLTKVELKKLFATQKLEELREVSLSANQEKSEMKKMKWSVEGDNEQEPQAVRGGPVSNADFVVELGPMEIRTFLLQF
Procedure: as §1, §2

[10] = molecular target: T3, α-galactosidase (green coffee beans); conditions: literature values; n.i. = no inhibition observed; cited from earlier work
[11] = molecular target: T5, α-mannosidase (jack beans); conditions: cited from earlier work
[12] = tested on: β-glucosidase; conditions: literature, enzyme source not stated; cited from earlier work
[13] = literature values, n.i. = no inhibition observed

O[C@H]1[C@H](O)[C@@H](O)CN2CC[C@H](O)[C@H]12 [Compound 1, castanospermine]
Ki [1]: > 1500 µM | Activity against yeast α-glucosidase, in words ([1]; literature): poor activity | Ki [2]: 0.015 µM | Activity against rice α-glucosidase, in words ([2]; literature): strongly inhibited | Ki [3, 13]: 1.5 µM | Activity against almond β-glucosidase, in words ([3]; literature): inhibiting

O[C@H]1[C@H](O)[C@@H](O)CN2CCSC[C@H]12 [Compound 3, 7(S),8(R),9(R),10(S)-Trihydroxy-2-thiaquinolizidine]
Type of inhibition, yeast α-glucosidase ([4]; double reciprocal plots, FIG. 6A): competitive inhibition | Ki ([4]; p-nitrophenylglucoside substrate, 37° C.): 330 µM | Type of inhibition, rice α-glucosidase ([5]; FIG. 6B): competitive inhibition | Ki ([5]; maltose substrate, sodium acetate buffer pH 4.0, 37° C.): 900 µM | Inhibitory activity towards β-glucosidase (almond), in words ([6]; inhibitor 0.05 mM to 11 mM): No inhibitory activity | Inhibition activity Ki, β-glucosidase (almond) ([6]; n.i. = no inhibition observed): n.i.^b | Inhibitory activity towards α-galactosidase (green coffee beans), in words ([7]; inhibitor 0.05 mM to 11 mM): No inhibitory activity | Inhibition activity Ki, α-galactosidase (green coffee beans) ([7]; n.i. = no inhibition observed): n.i.^ | Inhibitory activity towards β-galactosidase (E-coli), in words ([8]; inhibitor 0.05 mM to 11 mM): No inhibitory activity | Inhibition activity Ki, β-galactosidase (E. Coli) ([8]; n.i. = no inhibition observed): n.i.^ | Inhibitory activity towards α-mannosidase (jack bean), in words ([9]; inhibitor 0.05 mM to 11 mM): No inhibitory activity | Inhibition activity Ki, α-mannosidase (jack beans) ([9]; n.i. = no inhibition observed): n.i.^

OC[C@H]1NC[C@H](O)[C@@H](O)[C@@H]1O [compound 2, deoxynojirimycin]
Ki [2]: 0.01 µM | Ki [3, 13]: […]

O[C@@H]1[C@@H](O)[C@H](O)N2CCCC[C@H]2[C@H]1O [compound 10]
Inhibition activity Ki, β-glucosidase (almond) [3, 13]: n.i. | Inhibition activity Ki, α-galactosidase (green coffee beans) [10]: n.i.

O[C@H]1[C@H](O)[C@H](O)CN2CCC[C@H](O)[C@H]12 [compound 11]
IC50 ([1]; literature value, read-out: Inhibition activity IC50, α-glucosidase (yeast)): > 2000 µM | IC50 ([3]; literature value, read-out: Inhibition activity IC50, β-glucosidase (almond)): > 2000 µM | IC50 ([11]; literature value, read-out: Inhibition activity IC50, α-mannosidase (jack beans)): > 2000 µM | Inhibition of α-mannosidase, in words ([11]; literature): extremely poor inhibition

NC1=N[C@H](CO)[C@@H](O)[C@H](O)[C@H]1O [compound 12]
Ki [1]: ~10 µM | Ki [3, 13]: 8 µM | Ki [10]: ~10 µM

CC1(C)O[C@H]2[C@H](O1)[C@@H](O)CSC[C@@H]2O [compound 13]
Activity against a β-glucosidase, in words [12]: inactive

Source: patent publication US7342010B2, “2-thiaquinolizidines and process for the preparation thereof” (Board of Trustees of Michigan State University, priority 2004, dated 2008)
